Data: ChEMBL document CHEMBL5247584, “Design, synthesis and evaluation of fused hybrids with acetylcholinesterase inhibiting and Nrf2 activating functions for Alzheimer's disease” (Eur J Med Chem, 2022)
Calls of active or inactive are those of the source. The rule behind the calls is not given here.

Assays:
[1] = target: T1, Nuclear factor erythroid 2-related factor 2 (Rattus norvegicus) (UniProt O54968); test: Induction of Nrf2 nuclear translocation in rat PC12 cells measured for 12 hrs by FITC staining based confocal microscopic analysis; type: cell-based; settings: filed as activator
T1 sequence (whole entry): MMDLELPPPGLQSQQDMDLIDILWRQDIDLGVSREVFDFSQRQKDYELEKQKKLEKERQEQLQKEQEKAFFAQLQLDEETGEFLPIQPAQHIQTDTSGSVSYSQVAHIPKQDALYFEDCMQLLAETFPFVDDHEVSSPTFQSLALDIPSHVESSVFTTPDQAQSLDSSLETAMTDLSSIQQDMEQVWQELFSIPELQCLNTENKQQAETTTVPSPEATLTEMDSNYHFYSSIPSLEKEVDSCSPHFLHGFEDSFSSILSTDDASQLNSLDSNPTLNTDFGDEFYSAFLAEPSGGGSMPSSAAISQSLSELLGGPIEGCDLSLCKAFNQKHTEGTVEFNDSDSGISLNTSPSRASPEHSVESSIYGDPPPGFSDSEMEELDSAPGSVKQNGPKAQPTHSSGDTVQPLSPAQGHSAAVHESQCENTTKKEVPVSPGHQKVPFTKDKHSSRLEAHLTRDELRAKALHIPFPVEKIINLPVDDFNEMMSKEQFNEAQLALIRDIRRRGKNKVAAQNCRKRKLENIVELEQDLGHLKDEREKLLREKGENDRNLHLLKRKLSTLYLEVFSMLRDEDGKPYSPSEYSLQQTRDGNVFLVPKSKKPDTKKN

[2] = target: T1, Nuclear factor erythroid 2-related factor 2 (Rattus norvegicus); test: Activation of Nrf2 pathway in rat PC-12 cells assessed as increase in Nrf2 accumulation in nucleus at 20 uM measured after 1 to 5 hrs by Western blot analysis; type: cell-based; settings: PC12, filed as activator, time 1-5 hrs
Mus musculus [3] = test: Antiinflammatory activity Abeta1-42-induced against ICR mouse assessed as increase in TGF-beta1 level at 10 mg/kg, po in presence of presence of donepezil by ELISA analysis; type: functional, organism-based
[4] = […] in rat PC12 cells assessed as morphological changes; type: toxicity, cell-based; settings: pc-12
SH-SY5Y [5] = test: Neuroprotective activity against Abeta1-42-induced human SH-SY5Y cells assessed as inhibition of ROS production preincubated for 24 hrs followed by Abeta1-42 induction and measured after 24 hrs by DCFH-DA staining based fluorescence microscopic anlaysis; type: functional, cell-based; settings: dose 5.0 µM
Mus musculus [6] = test: Neuroprotective activity against Abeta1-42-induced ICR mouse at 10 mg/kg, po by ELISA analysis; type: functional, organism-based
[7] = Hepatotoxicity in […] assessed as effect on ALT level; type: toxicity, cell-based
BV-2 = test: Neuroprotective activity against LPS-induced mouse BV-2 cells assessed as inhibition of ROS production at 1 to 40 uM preincubated for 1 hr followed by LPS stimulation and measured after 24 hrs by DCFH-DA staining based microplate reader anlaysis; type: functional, cell-based; settings: dose 1-40 µM, time 25.0 hrs
Mus musculus [8] = test: Neuroprotective activity against Abeta1-42-induced ICR mouse at 20 mg/kg, po by ELISA analysis; type: functional, organism-based
[9] = target: T1, Nuclear factor erythroid 2-related factor 2 (Rattus norvegicus); test: Activation of Nrf2 pathway in rat PC-12 cells assessed as increase in GCLM level at 20 uM measured after 6 hrs by Western blot analysis; type: cell-based; settings: PC12, filed as activator
Mus musculus [10] = test: Antialzheimer activity against scopolamine-induced cognitive impairment ICR mouse model assessed as distance to reach target at 3 mg/kg, po administered once a day for 10 days and measured after 5 to 10 days by Morris water maze test; type: functional, organism-based; settings: time 5-10 day
HepG2-ARE-C8 = test: Cytotoxicity against human HepG2-ARE-C8 cells assessed as reduction in cell viability at 5 and 20 uM measured for 24 hrs by MTT assay; type: functional, cell-based
[11] = target: T1, Nuclear factor erythroid 2-related factor 2 (Rattus norvegicus); test: Activation of Nrf2 pathway in rat PC-12 cells assessed as fold increase in HO-1 level at 20 uM measured at 2 hrs by qRT-PCR analysis; type: cell-based; settings: PC12, filed as activator
[12] = target: T1, Nuclear factor erythroid 2-related factor 2 (Rattus norvegicus); test: Activation of Nrf2 pathway in rat PC-12 cells assessed as fold increase in Nrf2 expression level at 1 to 20 uM measured at 6 hrs by qRT-PCR analysis; type: cell-based; settings: PC12, filed as activator, dose 1-20 µM
Acetylcholinesterase [13] = target: Acetylcholinesterase (Electrophorus electricus, UniProt O42275); test: Inhibition of electric eel AChE using ATC and BTC iodide as substrate preincubated for 5 mins followed by substrate addition and measured after 2 mins by DTNB reagent based assay
Acetylcholinesterase (Electrophorus electricus, UniProt O42275), sequence (O42275 whole entry): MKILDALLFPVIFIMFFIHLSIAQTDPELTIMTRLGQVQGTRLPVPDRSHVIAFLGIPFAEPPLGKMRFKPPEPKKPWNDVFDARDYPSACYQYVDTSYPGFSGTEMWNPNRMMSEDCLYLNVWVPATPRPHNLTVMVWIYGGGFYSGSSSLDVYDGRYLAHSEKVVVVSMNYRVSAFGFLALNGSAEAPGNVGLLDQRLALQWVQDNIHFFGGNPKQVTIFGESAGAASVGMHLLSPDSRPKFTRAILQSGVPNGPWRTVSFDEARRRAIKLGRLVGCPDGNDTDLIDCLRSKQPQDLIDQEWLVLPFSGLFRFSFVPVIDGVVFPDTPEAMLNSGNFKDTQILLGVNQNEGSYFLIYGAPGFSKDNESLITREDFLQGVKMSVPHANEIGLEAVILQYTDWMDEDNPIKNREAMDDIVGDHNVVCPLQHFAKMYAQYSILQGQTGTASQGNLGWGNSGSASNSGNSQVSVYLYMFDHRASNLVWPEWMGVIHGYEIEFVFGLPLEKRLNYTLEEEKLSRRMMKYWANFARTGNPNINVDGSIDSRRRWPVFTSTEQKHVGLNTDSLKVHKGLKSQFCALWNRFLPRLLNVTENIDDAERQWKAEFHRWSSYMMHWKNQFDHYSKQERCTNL

[14] = target: T1, Nuclear factor erythroid 2-related factor 2 (Rattus norvegicus); test: Activation of Nrf2 pathway in rat PC-12 cells assessed as increase in HO-1 level at 20 uM measured after 6 hrs by Western blot analysis; type: cell-based; settings: PC12, filed as activator
[15] = target: T1, Nuclear factor erythroid 2-related factor 2 (Rattus norvegicus); test: Activation of Nrf2 pathway in rat PC-12 cells assessed as decrease in Nrf2 accumulation in cytoplasm at 20 uM measured after 1 to 5 hrs by Western blot analysis; type: cell-based; settings: PC12, time 1-5 hrs
SH-SY5Y [16] = test: Antiproliferative activity against human SH-SY5Y cells assessed as reduction in cell viability measured for 24 hrs by MTT assay; type: functional, cell-based
[17] = target: T1, Nuclear factor erythroid 2-related factor 2 (Rattus norvegicus); test: Activation of Nrf2 pathway in rat PC-12 cells assessed as fold increase in GCLM expression level at 1 to 20 uM measured at 6 hrs by qRT-PCR analysis; type: cell-based; settings: PC12, filed as activator, dose 1-20 µM
Mus musculus [18] = test: Cognitive enhancing effect in amyloid beta (1 to 42)-induced ICR mouse model assessed as increase in ACh level at 10 mg/kg […] by ELISA; type: functional, organism-based
SH-SY5Y [19] = test: Neuroprotective activity against Abeta1-42-induced human SH-SY5Y cells assessed as restoration of cell viability preinubated for 2 hrs followed by Abeta1-42 induction and measured after 24 hrs by MTT assay; type: functional, cell-based; settings: time 26.0 hrs
Mus musculus [20] = test: Cognitive enhancing effect in amyloid beta (1 to 42)-induced ICR mouse model assessed as increase in ACh level at 20 mg/kg […] by ELISA; type: functional, organism-based
[21] = target: T1, Nuclear factor erythroid 2-related factor 2 (Rattus norvegicus); test: Activation of Nrf2 pathway in rat PC-12 cells assessed as increase in NQO1 level at 20 uM measured after 6 hrs by Western blot analysis; type: cell-based; settings: PC12, filed as activator
[22] = target: T1, Nuclear factor erythroid 2-related factor 2 (Rattus norvegicus); test: Induction of Nrf2 pathway in rat PC12 cells assessed as fold increase in Nrf2 level at 20 uM measured after 6 hrs by Western blot analysis; type: cell-based; settings: filed as activator
Acetylcholinesterase [23] = target: Acetylcholinesterase (Homo sapiens, UniProt P22303); test: Inhibition of human AChE using ATC and BTC iodide as substrate preincubated for 5 mins followed by substrate addition and measured after 2 mins by DTNB reagent based assay
Acetylcholinesterase (Homo sapiens, UniProt P22303), sequence (P22303 whole entry): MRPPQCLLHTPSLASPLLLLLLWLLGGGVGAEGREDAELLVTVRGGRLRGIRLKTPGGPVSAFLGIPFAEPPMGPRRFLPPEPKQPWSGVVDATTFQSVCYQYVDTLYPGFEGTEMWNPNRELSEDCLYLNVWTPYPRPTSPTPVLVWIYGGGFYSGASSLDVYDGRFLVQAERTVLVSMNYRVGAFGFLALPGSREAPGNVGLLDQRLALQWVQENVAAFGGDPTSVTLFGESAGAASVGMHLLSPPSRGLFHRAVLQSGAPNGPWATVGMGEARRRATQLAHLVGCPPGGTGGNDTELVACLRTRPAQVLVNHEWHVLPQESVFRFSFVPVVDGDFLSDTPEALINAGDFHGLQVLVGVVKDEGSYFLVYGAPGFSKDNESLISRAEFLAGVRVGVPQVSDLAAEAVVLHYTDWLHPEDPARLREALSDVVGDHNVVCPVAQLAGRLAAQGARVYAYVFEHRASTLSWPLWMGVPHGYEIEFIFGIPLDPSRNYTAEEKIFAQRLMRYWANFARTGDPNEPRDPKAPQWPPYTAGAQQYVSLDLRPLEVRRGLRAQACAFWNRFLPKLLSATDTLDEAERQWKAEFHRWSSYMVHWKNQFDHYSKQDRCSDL

Mus musculus [24] = test: Antialzheimer activity against scopolamine-induced cognitive impairment ICR mouse model assessed as decrease in arrival time at 3 mg/kg, po administered once a day for 10 days and measured after 5 to 10 days by Morris water maze test; type: functional, organism-based; settings: time 5-10 day
Mus musculus [25] = test: Antialzheimer activity against scopolamine-induced cognitive impairment ICR mouse model assessed as reduction in escape latency at 3 mg/kg, po administered once a day for 10 days and measured after 5 to 10 days by Morris water maze test; type: functional, organism-based; settings: time 5-10 day
Mus musculus [26] = test: Antialzheimer activity against scopolamine-induced cognitive impairment ICR mouse model assessed as confuse escape tracks at 3 mg/kg, po administered once a day for 10 days and measured after 5 to 10 days by Morris water maze test; type: functional, organism-based; settings: time 5-10 day

With `Cc1ccc(-c2noc(-c3cccc(OCC4CCN(Cc5cccc(F)c5)CC4)c3)n2)cn1` the Activity [1] was “Active”, the Activity [2] was “Active” and the Activity (Mus musculus [3]) was “Active”. For the same compound, the Activity [4] was “Non-Toxic”, the Activity (SH-SY5Y [5]) was “Dose-Dependent Effect” and the Activity (Mus musculus [6]) was “Active”. For the same compound, the Activity [7] was “Non-Toxic”, the Activity (BV-2) was “Active” and the Activity (Mus musculus [8]) was “inactive”. The Activity [9] was “Active”, the Activity (Mus musculus [10]) was “Active” and the Activity (HepG2-ARE-C8) was “inactive”. It also gave a fold change (FC) [11] of 4, a fold change (FC) [12] of 4 and an IC50 (Acetylcholinesterase [13]) of 70 nM. The Activity [14] was “Active”, the Activity [15] was “inactive” and the Activity (SH-SY5Y [16]) was “inactive”. The fold change (FC) [17] was 4, the Activity (Mus musculus [18]) was “Active” and the Activity (SH-SY5Y [19]) was “Active”. For the same compound, the Activity (Mus musculus [20]) was “inactive”, the Activity [21] was “Active” and the fold change (FC) [22] was 4. For the same compound, the IC50 (Acetylcholinesterase [23]) was 380 nM, the Activity (Mus musculus [24]) was “Active” and the Activity (Mus musculus [25]) was “Active”. The Activity (Mus musculus [26]) was “Active”.
